test: recombinant barcode read abundance after kanamycin selection (control-corrected) (log10(CPM+1)); higher = more efficient recombination; sequences stand for … in AGTGCAGAGAAAATCGGCCAGTTTTCTCTGCCTGCAGTCCGCATGCCGT…ATTTATGCAGCGGACTGCCTTTCTCCCAAAGTGATAAACCGGACAGTATCATGGACCGGTTTTCCCGGTAATCCGTATTTGCAAGGTTGGTTTCACT; site = the 11-nt target
In short: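 Recombination efficiency in this pooled E. coli screen uses counts per million of barcodes at recombinant junctions, averaged and corrected against the control. The reported form is log10(CPM+1). Two replicates were plated on chloramphenicol/ampicillin LB agar as control and two on chloramphenicol/ampicillin/kanamycin with 0.1 mM IPTG.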

Row | Sequence | recombinant barcode read abundance (log10)
1 | TAGAGGGCTTGGGTTCTAACCTGTTGCGGCT [TAGAGGGCTCC_LTGcore_CT_RTGcore_AG] (site TAGAGGGCTCC) (LTG core: CT, RTG core: AG) | 0.623
2 | TAGAGGGCTTGGGTTCTAACCTGTTGCGGTG [TAGAGGGCTCC_LTGcore_CT_RTGcore_CA] (site TAGAGGGCTCC) (LTG core: CT, RTG core: CA) | 0.438
3 | TAGAGGGGGTGGGTTCTAACCTGTTGCGGAG [TAGAGGGCTCC_LTGcore_GG_RTGcore_CT] (site TAGAGGGCTCC) (LTG core: GG, RTG core: CT) | 0.0671
4 | TAGAGGGGGTGGGTTCTAACCTGTTGCGGCC [TAGAGGGCTCC_LTGcore_GG_RTGcore_GG] (site TAGAGGGCTCC) (LTG core: GG, RTG core: GG) | 0.114
5 | TAGAGGGTCTGGGTTCTAACCTGTTGCGGGA [TAGAGGGCTCC_LTGcore_TC_RTGcore_TC] (site TAGAGGGCTCC) (LTG core: TC, RTG core: TC) | 0.0922
6 | TAGAGGGTGTGGGTTCTAACCTGTTGCGGAG [TAGAGGGCTCC_LTGcore_TG_RTGcore_CT] (site TAGAGGGCTCC) (LTG core: TG, RTG core: CT) | 0.173
7 | TAGAGGGTTTGGGTTCTAACCTGTTGCGGAA [TAGAGGGCTCC_LTGcore_TT_RTGcore_TT] (site TAGAGGGCTCC) (LTG core: TT, RTG core: TT) | 0.0961
8 | TAGAGGGTTTGGGTTCTAACCTGTTGCGGAG [TAGAGGGCTCC_LTGcore_TT_RTGcore_CT] (site TAGAGGGCTCC) (LTG core: TT, RTG core: CT) | 0.949
9 | TCGCGACAATGGGTTCTAACCTGTTGCCGAG [TCGCGACCTCG_LTGcore_AA_RTGcore_CT] (site TCGCGACCTCG) (LTG core: AA, RTG core: CT) | 0.0505
10 | TCGCGACAATGGGTTCTAACCTGTTGCCGTT [TCGCGACCTCG_LTGcore_AA_RTGcore_AA] (site TCGCGACCTCG) (LTG core: AA, RTG core: AA) | 0.176
11 | TCGCGACACTGGGTTCTAACCTGTTGCCGAG [TCGCGACCTCG_LTGcore_AC_RTGcore_CT] (site TCGCGACCTCG) (LTG core: AC, RTG core: CT) | 0.0715
12 | TCGCGACCGTGGGTTCTAACCTGTTGCCGAG [TCGCGACCTCG_LTGcore_CG_RTGcore_CT] (site TCGCGACCTCG) (LTG core: CG, RTG core: CT) | 0.392
13 | TCGCGACCTTGGGTTCTAACCTGTTGCCGAT [TCGCGACCTCG_LTGcore_CT_RTGcore_AT] (site TCGCGACCTCG) (LTG core: CT, RTG core: AT) | 0.514
14 | TCGCGACCTTGGGTTCTAACCTGTTGCCGCA [TCGCGACCTCG_LTGcore_CT_RTGcore_TG] (site TCGCGACCTCG) (LTG core: CT, RTG core: TG) | 0.072
15 | TCGCGACCTTGGGTTCTAACCTGTTGCCGCT [TCGCGACCTCG_LTGcore_CT_RTGcore_AG] (site TCGCGACCTCG) (LTG core: CT, RTG core: AG) | 0.0581
16 | TCGCGACCTTGGGTTCTAACCTGTTGCCGGG [TCGCGACCTCG_LTGcore_CT_RTGcore_CC] (site TCGCGACCTCG) (LTG core: CT, RTG core: CC) | 0.283
17 | TCGCGACCTTGGGTTCTAACCTGTTGCCGGT [TCGCGACCTCG_LTGcore_CT_RTGcore_AC] (site TCGCGACCTCG) (LTG core: CT, RTG core: AC) | 0.129
18 | TCGCGACCTTGGGTTCTAACCTGTTGCCGTC [TCGCGACCTCG_LTGcore_CT_RTGcore_GA] (site TCGCGACCTCG) (LTG core: CT, RTG core: GA) | 0.204
19 | TCGCGACGATGGGTTCTAACCTGTTGCCGAG [TCGCGACCTCG_LTGcore_GA_RTGcore_CT] (site TCGCGACCTCG) (LTG core: GA, RTG core: CT) | 0.241
20 | TCGCGACGATGGGTTCTAACCTGTTGCCGTC [TCGCGACCTCG_LTGcore_GA_RTGcore_GA] (site TCGCGACCTCG) (LTG core: GA, RTG core: GA) | 0.123
21 | TCGCGACGCTGGGTTCTAACCTGTTGCCGAG [TCGCGACCTCG_LTGcore_GC_RTGcore_CT] (site TCGCGACCTCG) (LTG core: GC, RTG core: CT) | 0.235
22 | TCGCGACGTTGGGTTCTAACCTGTTGCCGAC [TCGCGACCTCG_LTGcore_GT_RTGcore_GT] (site TCGCGACCTCG) (LTG core: GT, RTG core: GT) | 0.0448

Row | Sequence | recombinant barcode read abundance (log10)
23 | TCGCGACTATGGGTTCTAACCTGTTGCCGAG [TCGCGACCTCG_LTGcore_TA_RTGcore_CT] (site TCGCGACCTCG) (LTG core: TA, RTG core: CT) | 0.0865
24 | TCGCGACTGTGGGTTCTAACCTGTTGCCGCA [TCGCGACCTCG_LTGcore_TG_RTGcore_TG] (site TCGCGACCTCG) (LTG core: TG, RTG core: TG) | 0.419
25 | TCTACCCAATGGGTTCTAACCTGTTGCTGTT [TCTACCCCTCA_LTGcore_AA_RTGcore_AA] (site TCTACCCCTCA) (LTG core: AA, RTG core: AA) | 0.186
26 | TCTACCCATTGGGTTCTAACCTGTTGCTGAG [TCTACCCCTCA_LTGcore_AT_RTGcore_CT] (site TCTACCCCTCA) (LTG core: AT, RTG core: CT) | 0.331
27 | TCTACCCCATGGGTTCTAACCTGTTGCTGTG [TCTACCCCTCA_LTGcore_CA_RTGcore_CA] (site TCTACCCCTCA) (LTG core: CA, RTG core: CA) | 0.0357
28 | TCTACCCCGTGGGTTCTAACCTGTTGCTGAG [TCTACCCCTCA_LTGcore_CG_RTGcore_CT] (site TCTACCCCTCA) (LTG core: CG, RTG core: CT) | 0.0746
29 | TCTACCCCGTGGGTTCTAACCTGTTGCTGCG [TCTACCCCTCA_LTGcore_CG_RTGcore_CG] (site TCTACCCCTCA) (LTG core: CG, RTG core: CG) | 0.0225
30 | TCTACCCCTTGGGTTCTAACCTGTTGCTGAC [TCTACCCCTCA_LTGcore_CT_RTGcore_GT] (site TCTACCCCTCA) (LTG core: CT, RTG core: GT) | 0.169
31 | TCTACCCCTTGGGTTCTAACCTGTTGCTGCG [TCTACCCCTCA_LTGcore_CT_RTGcore_CG] (site TCTACCCCTCA) (LTG core: CT, RTG core: CG) | 0.0367
32 | TCTACCCCTTGGGTTCTAACCTGTTGCTGCT [TCTACCCCTCA_LTGcore_CT_RTGcore_AG] (site TCTACCCCTCA) (LTG core: CT, RTG core: AG) | 0.0324
33 | TCTACCCCTTGGGTTCTAACCTGTTGCTGGT [TCTACCCCTCA_LTGcore_CT_RTGcore_AC] (site TCTACCCCTCA) (LTG core: CT, RTG core: AC) | 0.0498
34 | TCTACCCCTTGGGTTCTAACCTGTTGCTGTC [TCTACCCCTCA_LTGcore_CT_RTGcore_GA] (site TCTACCCCTCA) (LTG core: CT, RTG core: GA) | 0.0329
35 | TCTACCCCTTGGGTTCTAACCTGTTGCTGTT [TCTACCCCTCA_LTGcore_CT_RTGcore_AA] (site TCTACCCCTCA) (LTG core: CT, RTG core: AA) | 0.07
36 | TCTACCCGATGGGTTCTAACCTGTTGCTGTC [TCTACCCCTCA_LTGcore_GA_RTGcore_GA] (site TCTACCCCTCA) (LTG core: GA, RTG core: GA) | 0.0498
37 | TCTACCCGGTGGGTTCTAACCTGTTGCTGAG [TCTACCCCTCA_LTGcore_GG_RTGcore_CT] (site TCTACCCCTCA) (LTG core: GG, RTG core: CT) | 0.0172
38 | TCTACCCTATGGGTTCTAACCTGTTGCTGAG [TCTACCCCTCA_LTGcore_TA_RTGcore_CT] (site TCTACCCCTCA) (LTG core: TA, RTG core: CT) | 0.0453
39 | TGATACCAATGGGTTCTAACCTGTTGCGTAG [TGATACCCTAC_LTGcore_AA_RTGcore_CT] (site TGATACCCTAC) (LTG core: AA, RTG core: CT) | 0.143
40 | TGATACCACTGGGTTCTAACCTGTTGCGTAG [TGATACCCTAC_LTGcore_AC_RTGcore_CT] (site TGATACCCTAC) (LTG core: AC, RTG core: CT) | 0.135
41 | TGATACCCTTGGGTTCTAACCTGTTGCGTCC [TGATACCCTAC_LTGcore_CT_RTGcore_GG] (site TGATACCCTAC) (LTG core: CT, RTG core: GG) | 0.629
42 | TGATACCCTTGGGTTCTAACCTGTTGCGTCG [TGATACCCTAC_LTGcore_CT_RTGcore_CG] (site TGATACCCTAC) (LTG core: CT, RTG core: CG) | 0.0319
43 | TGATACCCTTGGGTTCTAACCTGTTGCGTCT [TGATACCCTAC_LTGcore_CT_RTGcore_AG] (site TGATACCCTAC) (LTG core: CT, RTG core: AG) | 0.133

— the supplement of paper PMC11208160
